Consider 22 compounds from patent US8658794B2, “8-methyl-1-phenyl-imidazol[1,5-a]pyrazine compounds as Lck inhibitors and uses thereof” (Merck Sharp & Dohme B.V., priority 2010, dated 2014).

This experiment deals with T1, N-terminal His6-tagged recombinant full-length human Lck (Homo sapiens, UniProt P06239).
T1 construct: N-terminal His6-tagged recombinant full-length human Lck; His6 (N); purchased Millipore
T1 sequence (P06239 whole entry): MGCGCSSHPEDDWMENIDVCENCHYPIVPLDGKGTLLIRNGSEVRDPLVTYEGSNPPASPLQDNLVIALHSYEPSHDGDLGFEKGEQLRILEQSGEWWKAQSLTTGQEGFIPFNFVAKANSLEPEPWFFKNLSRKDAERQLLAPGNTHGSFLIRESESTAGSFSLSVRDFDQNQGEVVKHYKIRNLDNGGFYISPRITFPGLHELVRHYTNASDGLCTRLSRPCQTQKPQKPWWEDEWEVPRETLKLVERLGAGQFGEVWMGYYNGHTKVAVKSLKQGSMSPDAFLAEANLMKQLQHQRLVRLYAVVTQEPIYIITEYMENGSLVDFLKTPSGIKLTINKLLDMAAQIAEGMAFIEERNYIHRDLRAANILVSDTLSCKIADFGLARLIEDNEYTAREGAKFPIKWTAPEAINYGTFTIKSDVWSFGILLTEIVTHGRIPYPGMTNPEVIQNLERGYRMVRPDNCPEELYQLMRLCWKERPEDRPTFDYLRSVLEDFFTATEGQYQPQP
As to the kind of experiment: Lck IMAP assay. The conditions noted are these: ATP 6 μM (KM,ATP), enzyme pre-incubated with compounds for 60 minutes, values given as bins. It is filed as biochemical. An excerpt:
Inhibition of kinase activity can be measured using the Immobilized Metal Assay for Phosphochemicals (IMAP) assay. IMAP is a homogeneous fluorescence polarization (FP) assay based on affinity capture of phosphorylated peptide substrates. IMAP uses fluorescein-labeled peptide substrates that, upon phosphorylation by a protein kinase, bind to so-called IMAP nanoparticles, which are derivatized with trivalent metal complexes. Binding causes a change in the rate of the molecular motion of the peptide, and results in an increase in the FP value observed for the fluorescein label attached to the substrate peptide (Gaudet et al. A homogeneous fluorescence polarization assay adaptable for a range of protein serine/threonine and tyrosine kinases. J. Biomol. Screen (2003) 8, 164-175).
Enzyme used was N-terminal His6-tagged recombinant full-length human Lck from Millipore. Phosphorylation substrate was a fluorescein-labeled peptide (5FAM-KVEKIGEGTYGVV—NH2) derived from p34cdc2 from Molecular Devices. Enzymes, substrate and ATP were diluted in Kinase Reaction buffer (10 mM Tris-HCl, 10 mM MgCl2, 0.01% Tween-20, 0.05% NaN3 pH 7.2, 1 mM DTT (dithiotreitol). The final volume at the kinase reaction step of the assay in the 384-well plate was 20 μl. Final amount of enzyme in the reaction was 0.1 U/ml. Enzyme was pre-incubated with compounds diluted in 1% DMSO (dimethylsulfoxide) for 60 minutes at room temperature in the dark. Subsequently, peptide substrate to a final concentration of 100 nM, and ATP to a final concentration of 6 μM were added and the mix was incubated for 120 minutes at room temperature in the dark. IMAP progressive binding buffer (75% 1× buffer A, 25% 1× buffer B with 1:600 Progressive Binding Reagent; Molecular Devices) was added, followed by an incubation step of 60 minutes at room temperature in the dark. Finally, the FP signal was read on an Envision Multilabel reader (Perkin Elmer).
All biochemical assays were run at KM,ATP of the enzyme using non-saturated conditions, meaning that during the incubation time it was assured that the signal increase was linear with time. For all biochemical assays a reference standard was used on each plate.
Ten point serial dilutions using a √10 dilution factor were used for dose response testing of compounds. Starting concentration was 10^-6M for Lck IMAP assays. Dose-response curves were run as two experiments on duplicate plates (N=1; n=2). All data was normalized to percentage effect based on maximum (Max) and minimum (Min) control values. On every 384 assay plate 16 wells were used as minimum wells (wells with ATP, 0% effect) and 16 wells were used as maximum wells (wells without ATP, 100% effect). 16 wells were used for measuring the background signal, obtained from a kinase reaction containing all constituents except the labeled peptide substrate. Percentage effect was plotted against log dilution concentration of compound to obtain sigmoid dose response curves. pIC50 values were calculated using ActivityBase.
Turning to `CCC[C@H](C)OC(=O)Nc1ccc(-c2nc(C3CCC(N4CCN(C)CC4)C3)n3ccnc(C)c23)cc1OC` (mixture of isomers) [Example 28, (S)-Pentan-2-yl 2-methoxy-4-(8-methyl-3-(3-(4-methylpiperazin-1-yl)cyclopentyl)imidazo[1,5-a]pyrazin-1-yl)phenylcarbamate], the IC50 (usually the concentration that inhibits the measured activity by half) was ≤ 10 nM. As for `COc1cc(-c2nc(C3CCOCC3)n3ccnc(C)c23)ccc1NC(=O)c1cc2ccccc2n1C` [Example 1, N-[2-Methoxy-4-[8-methyl-3-(tetrahydro-2H-pyran-4-yl)imidazo[1,5-a]pyrazine]phenyl]-1-methyl-1H-indole-2-carboxamide], the IC50 is ≤ 10 nM. Then `COc1cc(-c2nc([C@H]3CC[C@H](N4CCN(C(C)=O)CC4)CC3)n3ccnc(C)c23)ccc1NC(=O)c1cc2c(OC)cccc2n1C` [Example 2, N-(4-(3-((Trans)-4-(4-acetylpiperazin-1-yl)cyclohexyl)-8-methylimidazo[1,5-a]pyrazin-1-yl)-2-methoxyphenyl)-4-methoxy-1-methyl-1H-indole-2-carboxamide], with ≤ 10 nM; and `CCC[C@H](C)OC(=O)Nc1ccc(-c2nc(N3CCC3)n3ccnc(C)c23)cc1OC` [Example 3, (S)-pentan-2-yl 4-(3-(azetidin-1-yl)-8-methylimidazo[1,5-a]pyrazin-1-yl)-2-methoxyphenylcarbamate], with 10 to 100 nM; and `CCC[C@H](C)OC(=O)Nc1ccc(-c2nc([C@@H]3CCN(C(=O)CN(C)C)C3)n3ccnc(C)c23)cc1OC` [Example 4, (S)-pentan-2-yl 4-(3-((R)-1-(2-(dimethylamino)acetyl)pyrrolidin-3-yl)-8-methylimidazo[1,5-a]pyrazin-1-yl)-2-methoxyphenylcarbamate], with ≤ 10 nM. Take `COc1cc(-c2nc([C@H]3CC[C@H](OC(C)=O)CC3)n3ccnc(C)c23)ccc1NC(=O)c1cc2c(OC)cccc2n1C` [Example 5, (Trans)-4-(1-(3-methoxy-4-(4-methoxy-1-methyl-1H-indole-2-carboxamido)phenyl)-8-methylimidazo[1,5-a]pyrazin-3-yl)cyclohexyl acetate]: the IC50 is ≤ 10 nM.

Take `COc1cc(-c2nc([C@H]3CC[C@H](O)CC3)n3ccnc(C)c23)ccc1NC(=O)c1cc2c(OC)cccc2n1C` [Example 6, N-(4-(3-((trans)-4-hydroxycyclohexyl)-8-methylimidazo[1,5-a]pyrazin-1-yl)-2-methoxyphenyl)-4-methoxy-1-methyl-1H-indole-2-carboxamide]: the IC50 is ≤ 10 nM.

Turning to `COc1cc(-c2nc([C@H]3CC[C@H](N4CCN(C)CC4)CC3)n3ccnc(C)c23)ccc1NC(=O)c1cc2c(OC)cccc2n1C` [Example 7, 4-Methoxy-N-(2-methoxy-4-(8-methyl-3-((trans)-4-(4-methylpiperazin-1-yl)cyclohexyl)imidazo[1,5-a]pyrazin-1-yl)phenyl)-1-methyl-1H-indole-2-carboxamide], the IC50 was ≤ 10 nM.

`COc1cc(-c2nc([C@H]3CC[C@@H](N4CCN(C)CC4)CC3)n3ccnc(C)c23)ccc1NC(=O)c1cc2c(OC)cccc2n1C` [Example 8, 4-Methoxy-N-(2-methoxy-4-(8-methyl-3-((cis)-4-(4-methylpiperazin-1-yl)cyclohexyl)imidazo[1,5-a]pyrazin-1-yl)phenyl)-1-methyl-1H-indole-2-carboxamide]: the IC50 is ≤ 10 nM.

For `COc1cc(-c2nc([C@H]3CC[C@H](N4CC(F)(F)C4)CC3)n3ccnc(C)c23)ccc1NC(=O)c1cc2c(OC)cccc2n1C` [Example 9, N-(4-(3-((trans)-4-(3,3-difluoroazetidin-1-yl)cyclohexyl)-8-methylimidazo[1,5-a]pyrazin-1-yl)-2-methoxyphenyl)-4-methoxy-1-methyl-1H-indole-2-carboxamide], the IC50 was ≤ 10 nM. Regarding `COc1cc(-c2nc([C@H]3CC[C@@H](N4CC(F)(F)C4)CC3)n3ccnc(C)c23)ccc1NC(=O)c1cc2c(OC)cccc2n1C` [Example 10, N-(4-(3-((cis)-4-(3,3-difluoroazetidin-1-yl)cyclohexyl)-8-methylimidazo[1,5-a]pyrazin-1-yl)-2-methoxyphenyl)-4-methoxy-1-methyl-1H-indole-2-carboxamide], the IC50 is ≤ 10 nM. Take `CCC[C@H](C)OC(=O)Nc1ccc(-c2nc([C@H]3CC[C@H](NCCOC)CC3)n3ccnc(C)c23)cc1OC` [Example 11, (S)-Pentan-2-yl 2-methoxy-4-(3-((trans)-4-(2-methoxyethylamino)cyclohexyl)-8-methyl-imidazo[1,5-a]pyrazin-1-yl)phenylcarbamate]: the IC50 was ≤ 10 nM. On to `COc1cc(-c2nc([C@H]3CC[C@H](N4CCOCC4)CC3)n3ccnc(C)c23)ccc1NC(=O)c1cc2ccccc2n1C` [Example 12, N-(2-methoxy-4-(8-methyl-3-((trans)-4-morpholinocyclohexyl)imidazo[1,5-a]pyrazin-1-yl)phenyl)-1-methyl-1H-indole-2-carboxamide], for which the IC50 was ≤ 10 nM.

Regarding `COc1cc(-c2nc(C3(C)COC3)n3ccnc(C)c23)ccc1NC(=O)c1cc2c(OC)cccc2n1C` [Example 13, 4-Methoxy-N-(2-methoxy-4-(8-methyl-3-(3-methyloxetan-3-yl)imidazo[1,5-a]pyrazin-1-yl)phenyl)-1-methyl-1H-indole-2-carboxamide], the half-maximal inhibitory concentration (IC50) is ≤ 10 nM. With `COc1cc(-c2nc(CO)n3ccnc(C)c23)ccc1NC(=O)c1cc2c(OC)cccc2n1C` [Example 14, N-(4-(3-(hydroxymethyl)-8-methylimidazo[1,5-a]pyrazin-1-yl)-2-methoxyphenyl)-4-methoxy-1-methyl-1H-indole-2-carboxamide], the IC50 was 10 to 100 nM.

Consider `COc1cc(-c2nc(Cn3ccnc3)n3ccnc(C)c23)ccc1NC(=O)c1cc2c(OC)cccc2n1C` [Example 15, N-(4-(3-((1H-imidazol-1-yl)methyl)-8-methylimidazo[1,5-a]pyrazin-1-yl)-2-methoxyphenyl)-4-methoxy-1-methyl-1H-indole-2-carboxamide], for which the IC50 was 100 to 1000 nM.

As for `COc1cc(-c2nc(C3CN(C4CCOCC4)C3)n3ccnc(C)c23)ccc1NC(=O)c1cc2c(OC)cccc2n1C` [Example 16, 4-Methoxy-N-(2-methoxy-4-(8-methyl-3-(1-(tetrahydro-2H-pyran-4-yl)azetidin-3-yl)imidazo[1,5-a]pyrazin-1-yl)phenyl)-1-methyl-1H-indole-2-carboxamide], the IC50 was 10 to 100 nM. Take `COc1cc(-c2nc(C3CCNCC3)n3ccnc(C)c23)ccc1NC(=O)c1cc2c(OC)cccc2n1C` [Example 17, 4-Methoxy-N-(2-methoxy-4-(8-methyl-3-(piperidin-4-yl)imidazo[1,5-a]pyrazin-1-yl)phenyl)-1-methyl-1H-indole-2-carboxamide]: the IC50 is ≤ 10 nM. As to `COc1cc(-c2nc(C3CCN(CC(=O)N(C)C)CC3)n3ccnc(C)c23)ccc1NC(=O)c1cc2ccccc2n1C` [Example 18, N-(4-(3-(1-(2-(dimethylamino)-2-oxoethyl)piperidin-4-yl)-8-methylimidazo[1,5-a]pyrazin-1-yl)-2-methoxyphenyl)-1-methyl-1H-indole-2-carboxamide], the IC50 is ≤ 10 nM. Turning to `COc1cc(-c2nc(C3CCN(C(=O)CN(C)C)CC3)n3ccnc(C)c23)ccc1NC(=O)c1cc2ccccc2n1C` [Example 19, N-(4-(3-(1-(2-(dimethylamino)acetyl)piperidin-4-yl)-8-methylimidazo[1,5-a]pyrazin-1-yl)-2-methoxyphenyl)-1-methyl-1H-indole-2-carboxamide], the IC50 was ≤ 10 nM.

For `COc1cc(-c2nc(C3CCN(C(=O)CN)CC3)n3ccnc(C)c23)ccc1NC(=O)c1cc2ccccc2n1C` [Example 20, N-(4-(3-(1-(2-Aminoacetyl)piperidin-4-yl)-8-methylimidazo[1,5-a]pyrazin-1-yl)-2-methoxyphenyl)-1-methyl-1H-indole-2-carboxamide], the IC50 was ≤ 10 nM. Then `COc1cc(-c2nc(C3CCN(C(N)=O)CC3)n3ccnc(C)c23)ccc1NC(=O)c1cc2c(OC)cccc2n1C` [Example 21, N-(4-(3-(1-carbamoylpiperidin-4-yl)-8-methylimidazo[1,5-a]pyrazin-1-yl)-2-methoxyphenyl)-4-methoxy-1-methyl-1H-indole-2-carboxamide], with ≤ 10 nM.
